According to patent US10561379B2, “In vivo positron emission tomography-based perfusion/blood pool imaging using labeled erythrocytes” (H. LEE MOFFITT CANCER CENTER AND RESEARCH INSTITUTE, INC., priority 2016, dated 2020):

Assays:
human red blood cells = test: FDG labeling of human red blood cells, 5 minute incubation at room temperature (Example 1); format: cell-based
Experimental: 150 microCuries of FDG in a 100 microliter volume was incubated with 250 microliters of human red blood cells to a final solution volume of 500 microliters (NaCl/KCl/EDTA solution contains 140 mM NaCl, 4 mM KCl, 2.5 mM K2EDTA dihydrate). FDG incubation duration=5 minutes at room temperature. Triplicate samples were used. Samples were centrifuged 1000 g 10 minutes after 5 minute FDG incubation, and RBC pellet was washed twice with 1.0 ml of NaCl/KCl/EDTA solution. A sample of the collected supernatant and a pellet sample was counted in a gamma counter with 18-F gating. 3% incorporation rate=4.5 microCurie of incorporated FDG/250 microliters of human red blood cell=18 microCurie of FDG/1 ml human red blood cells. Thus, 60 milliliters of whole blood from a patient should yield approximately 432-486 microCuries of FDG labeled red blood cells. (Assumes average 40% female hematocrit and 45% male hematocrit).

human RBCs = test: FDG uptake by human RBCs (% total FDG incorporation, dose calibrator counting); format: cell-based; conditions: for mean % total FDG incorporation: 30' 37° C. incubation with 37-74 MBq FDG (text b108)
Experimental: […] 30′, centrifuged 1000 g 10′, and washed twice in 4× volume 1×EDTA solution. […] Sample/wash aliquots were counted in an Atomlab 600 dose calibrator (Biodex) to measure % retained FDG.
Human red blood cell (RBC) preparation and FDG-RBC labeling: Packed human red blood cells collected in standard anticoagulant citrate dextrose (ACD) solution (either ≤24 hours post phlebotomy or ˜5 day post phlebotomy) were obtained from Zen-Bio, Inc. 370-740 Megabecquerel (MBq) (1 ml) USP grade 2-deoxy-2-(^18F)fluoro-D-glucose (FDG) were obtained from Cardinal Health. Vendor supplied human RBCs are centrifuged 1000 g 10′, and the remaining anticoagulant and buffy coat residual are gently aspirated. RBCs are then gently washed in a 4× volume of filter sterilized “1×EDTA” solution (140 mM NaCl, 4 mM KCl, 2.5 mM Ethylenediaminetetraacetic acid dipotassium salt dihydrate (K2EDTA dihydrate)), centrifuged at 1000 g 10′, and the wash is manually aspirated. […] Samples are then centrifuged at 1000 g 10′ and the supernatant is carefully aspirated. RBCs are then washed and centrifuged twice with 4× volumes of 1×EDTA solution. For experiments characterizing residual unincorporated FDG, a 3rd wash/centrifugation step was performed. […] Aliquots from all samples and washes are counted with the Atomlab™ 600 dose calibrator (Biodex Medical Systems, Inc.).

[1] = tested on: splenectomized NSG immunodeficient mouse; test: microPET imaging of mice injected with FDG-labeled human erythrocytes or free FDG (Example 2); format: in vivo; conditions: tail vein catheter injection (≈47 microCuries FDG-labeled erythrocytes or ≈32 microCuries free FDG), 20-minute PET
Experimental: Approximately 47 microCuries of FDG-labeled human erythrocytes were injected via tail vein catheter into a splenectomized NSG immunodeficient mouse. The mouse was placed into a Siemens INVEON microPET scanner, and 18-F PET imaging of the mouse was performed over a 20-minute time period.
Approximately 32 microCuries of free FDG were injected via tail vein catheter into a second splenectomized NSG immunodeficient mouse. The mouse was placed into the Siemens INVEON microPET scanner, and 18-F PET imaging of the mouse was performed over a 20-minute time period.

[2] = tested on: splenectomized NSG immunodeficient mice; test: ECG-gated whole body microPET/CT imaging of NSG immunodeficient mice; format: in vivo, mouse; conditions: for time activity curve (TAC) of the heart, pattern: observation period 20-30 minutes; for anatomic distribution of FDG in the heart (fused microPET/CT images) / whole body distribution of FDG activity on microPET image / urinary excretion of FDG (kidneys, bladder) on microPET image: tail vein injection; for whole body distribution of FDG activity on microPET image: injected activity differs per figure
Experimental: 4-6 wk old splenectomized NSG immunodeficient mice (Jax Lab) were fasted O/N and phlebotomized (200-250 μl), prior to microPET imaging with an INVEON PET/CT preclinical scanner (Siemens). […]
PET images were analyzed with INVEON workstation software (Siemens). Patlak compartment plot option was chosen. For 3D PET and 4D PET data sets, VOIs were selected manually based on corresponding CT images: heart, leg muscle, liver, kidney and brain.
ECG-gated whole body microPET imaging of NSG immunodeficient mice: 4-6 week old splenectomized NOD scid gamma (NSG™) immunodeficient mice were obtained from The Jackson Laboratory. Mice were placed in specialized housing for immunodeficient mouse in the Moffitt Cancer Center (MCC) vivarium. Approval for all animal experimentation was first obtained from the University of South Florida (USF) Institutional Animal Care and Use Committee (IACUC). All animal experimentation was performed in accordance to federal regulations and USF IACUC principles and procedures. Animal imaging was performed in the MCC Small Animal Imaging Laboratory with an INVEON PET/CT (Siemens Medical Inc., Knoxville, Tenn.) preclinical scanner. Mice are first fasted the night before microPET imaging and undergo phlebotomy of ≈200-250 μl whole blood via retro-orbital venous plexus puncture immediately prior to microPET imaging. Blood glucose from the phlebotomized blood is measured. A tail vein microcatheter is placed in each mouse under inhalational isoflurane anesthesia. […] The PET part of the system has 64 detector blocks with total field of view (FOV) 12.7 cm and a spatial resolution of 1.4 mm. […] The ECG signal in each mouse was detected with three flat electrodes placed in two front and one rear limbs of each animal (ground lead on a rear leg). […] The threshold for TTL cardiac gating signals was set in a rising mode of R-wave peak. The PET list-mode data were reconstructed using 3D-OSEM iterative algorithm with four iterations and eight subsets, with a final image volume of 256×256×256 voxels. Voxel effective dimensions were 1.4×1.4×1.4 mm. For each animal there are three data sets: standard 3-dimensional (3D) PET reconstruction, resulting in a motion-time average 3D PET image; dynamic 3D PET reconstruction with 30 frames; and the phase-based 4-dimensional (regular 3-dimensional plus time, 4D) PET cardiac reconstruction, with four cardiac gates binning. In all cases, CT attenuation correction was applied to the PET images.
PET images of the mice were analyzed using INVEON Workstation Software (Siemens Medical Inc., Knoxville, Tenn.). Vendor software-supplied Patlak compartment plot option was selected (Patlak et al., 1983). For 3D PET and 4D PET data sets multiple volumes of interest (VOI) were selected manually based on corresponding CT images including: heart, leg muscle, liver, kidney and brain. […] Dynamic activity curves were plotted for VOIs using dynamic 3D PET data set for each animal. The 4D PET data were used for defining cardiac function. First the heart was segmented on CT images based on anatomical features, after that segmented volume (cardiac PET VOI) was transferred into co-registered PET images.

2-deoxy-2-(^18F)fluoro-D-glucose [FDG]
incorporation rate (human red blood cells; 150 microCuries FDG, 250 microliters human red blood cells, 5 minutes at room temperature): 3% | FDG/1 ml human red blood cells (human red blood cells; 5 minutes at room temperature): 18 microCurie | incorporated FDG/250 microliters of human red blood cell (human red blood cells; 5 minutes at room temperature, 150 microCuries FDG): 4.5 microCurie | FDG labeled red blood cells yielded from 60 milliliters of whole blood from a patient (human red blood cells; extrapolated, assumes 40% female and 45% male hematocrit): 432-486 microCuries | FDG incorporated in packed RBCs on clinical translation of the labeling/wash protocol (human RBCs; 10 ml's packed RBCs, initial 740 MBq FDG, inventor's prediction): up to 370 MBq | mean % total FDG incorporation (human RBCs; 250 μl 1 day old RBCs): 85.3%±1.8% | % total FDG incorporation (human RBCs; 250 μl 1 day old human RBCs, 37° C., 30' (text b110)): 73.3%±3.6% | % total FDG incorporation (human RBCs; 250 μl 1 day old human RBCs, 37° C., 30 minutes (time course)): 78.3%±0.9 | % total FDG incorporation (human RBCs; 250 μl 1 day old human RBCs, 37° C., 1 hour (time course)): 85.0%±0.0% | % total FDG incorporation (human RBCs; 250 μl 1 day old human RBCs, 37° C., 2 hours (FIG. 3 legend)): 73.3%±3.6% | % total FDG incorporation (human RBCs; 250 μl 1 day old human RBCs, 37° C., 2 hours (time course)): 85.3%±0.3% | % total FDG incorporation (human RBCs; 250 μl 1 day old human RBCs, 2 hours (FIG. 4 legend)): 85.3%±1.8% | % total FDG incorporation (human RBCs; 250 μl 1 day old human RBCs, room temperature (~25° C.), 2 hours): 10.3%±1.1% | % total FDG incorporation (human RBCs; 250 μl 5 day old human RBCs, 2 hours (FIG. 4 legend)): 3.3%±0.2% | mean % total FDG incorporation (human RBCs; 5 day old RBCs): 3.3%±0.2% | internal FDG uptake (in words) (human RBCs; human RBCs collected and used ≈5 days after phlebotomy): negligible rate of internal FDG uptake | tracer distribution on PET image [1]: majority of free FDG uptake is seen in the heart muscle, bladder, and kidneys | time activity curve (TAC) of the heart, pattern [2]: increases steadily over the observation period of 20-30 minutes | time activity curve (TAC) of the heart, pattern ([2]; listed as free FDG): steady increase in FDG activity over time | anatomic distribution of FDG in the heart (fused microPET/CT images) [2]: marked myocardial uptake of FDG in the left ventricle | whole body distribution of FDG activity on microPET image ([2]; listed as free 18F-FDG): normal marked FDG uptake in the myocardium | whole body distribution of FDG activity on microPET image ([2]; listed as free FDG): intense FDG accumulation in the myocardium and brain | anatomic distribution of FDG in the heart (fused microPET/CT images) ([2]; listed as free 18F-FDG): intense physiologic FDG uptake by myocardium of the left ventricle | urinary excretion of FDG (kidneys, bladder) on microPET image ([2]; listed as free 18F-FDG): physiologic FDG excretion into the kidneys and bladder | urinary excretion of FDG (kidneys, bladder) on microPET image ([2]; listed as free FDG): marked urinary excretion in the kidneys and bladder
